Reference: ChEMBL document CHEMBL4330078, “Discovery of potent Pan-Raf inhibitors with increased solubility to overcome drug resistance” (Eur J Med Chem, 2019)

Columns and labels:
[1] = Tmax in Sprague-Dawley rat at 10 mg/kg, po by LC-MS/MS analysis; assay type: ADME, organism-based; conditions: in vivo
[2] = Half life in human liver microsomes at 0.5 uM by LC-MS/MS analysis; assay type: ADME, Microsome
[3] = Volume of distribution at steady state in Sprague-Dawley rat at […], iv by LC-MS/MS analysis; assay type: ADME, organism-based; conditions: in vivo, read-out: Vdss
[4] = Clearance in Sprague-Dawley rat at […], iv by LC-MS/MS analysis; assay type: ADME, organism-based; conditions: in vivo
[5] = Cmax in Sprague-Dawley rat at 10 mg/kg, po by LC-MS/MS analysis; assay type: ADME, organism-based; parameters: dose 10 mg/kg, route oral; conditions: in vivo
[6] = AUC (0 to t) in Sprague-Dawley rat at 10 mg/kg, po by LC-MS/MS analysis; assay type: ADME, organism-based; conditions: in vivo
[7] = AUC (0 to infinity) in Sprague-Dawley rat at […], iv by LC-MS/MS analysis; assay type: ADME, organism-based; parameters: dose 2.5 mg/kg, time infinity, route intravenous; conditions: in vivo
[8] = AUC (0 to t) in Sprague-Dawley rat at […], iv by LC-MS/MS analysis; assay type: ADME, organism-based; conditions: in vivo
[9] = Cmax in Sprague-Dawley rat at […], iv by LC-MS/MS analysis; assay type: ADME, organism-based; parameters: dose 2.5 mg/kg, route intravenous; conditions: in vivo
[10] = Half life in Sprague-Dawley rat at […], iv by LC-MS/MS analysis; assay type: ADME, organism-based; conditions: in vivo
[11] = AUC (0 to infinity) in Sprague-Dawley rat at 10 mg/kg, po by LC-MS/MS analysis; assay type: ADME, organism-based; parameters: dose 10 mg/kg, route oral, time infinity; conditions: in vivo
[12] = Oral bioavailability in Sprague-Dawley rat at 10 mg/kg by LC-MS/MS analysis; assay type: ADME, organism-based; conditions: in vivo
[13] = Tmax in Sprague-Dawley rat at […], iv by LC-MS/MS analysis; assay type: ADME, organism-based; conditions: in vivo

| Structure (SMILES) | Tmax [1] | half-life at 0.5 µM [2] | Vd [3] | clearance [4] | Cmax [5] | AUC(0-t) [6] | AUC(0-inf) [7] | AUC(0-t) [8] | Cmax [9] | half-life [10] | AUC(0-inf) [11] | bioavailability [12] | Tmax [13] |
| --- | --- | --- | --- | --- | --- | --- | --- | --- | --- | --- | --- | --- | --- |
| Cc1ccc(C(=O)Nc2ccc(OCC3CCN(C)CC3)c(C(F)(F)F)c2)cc1NC(=O)C1(c2ncnc3[nH]ccc23)CC1 | 4 h | 6.5 h | 45.7 L/kg | 68.3 mL/min/kg | 72.1 ng/mL | 503 ng·h/mL | 607 ng·h/mL | 549 ng·h/mL | 272 ng/mL | 7.7 h | 522 ng·h/mL | 22.9% | 4.98 min |
| CNC(=O)c1cc(Oc2ccc(NC(=O)Nc3ccc(Cl)c(C(F)(F)F)c3)cc2)ccn1 [SORAFENIB] | – | 5.6 h | – | – | – | – | – | – | – | – | – | – | – |
